Laboratory results: BindingDB's records for doi:10.1016/s0960-894x(01)00306-7 (Atherogenics, 2001)

Experiment: Ability to inhibit expression of Vascular cell adhesion molecule 1

| SMILES | IC50 [µM] |
| --- | --- |
| CN1CCN(S(=O)(=O)c2ccc(Cl)c([N+](=O)[O-])c2)CC1 [1-(4-Chloro-3-nitro-benzenesulfonyl)-4-methyl-piperazine] | 8 |
| CCOC(=O)C1CCN(S(=O)(=O)c2ccc(Cl)c([N+](=O)[O-])c2)CC1 [1-(4-Chloro-3-nitro-benzenesulfonyl)-piperidine-4-carboxylic acid ethyl ester] | 8 |
| O=[N+]([O-])c1cc(S(=O)(=O)N2CCCC2)ccc1Cl [1-(4-Chloro-3-nitro-benzenesulfonyl)-pyrrolidine] | 4 |
| O=[N+]([O-])c1cc(S(=O)(=O)c2ccc(F)c([N+](=O)[O-])c2)ccc1F [1-fluoro-4-[(4-fluoro-3-nitrophenyl)sulfonyl]-2-nitrobenzene] | 7 |
| CN(CCCN(C)S(=O)(=O)c1ccc(Cl)c([N+](=O)[O-])c1)S(=O)(=O)c1ccc(Cl)c([N+](=O)[O-])c1 [1N-{3-[4-chloro-3-nitrophenyl(methyl)sulfonamido]propyl}-1N-methyl-4-chloro-3-nitro-1-benzenesulfonamide] | 6 |
| CN(CCCCCCN(C)S(=O)(=O)c1ccc(Cl)c([N+](=O)[O-])c1)S(=O)(=O)c1ccc(Cl)c([N+](=O)[O-])c1 [1N-{6-[4-chloro-3-nitrophenyl(methyl)sulfonamido]hexyl}-1N-methyl-4-chloro-3-nitro-1-benzenesulfonamide] | 30 |
| N#Cc1cc([N+](=O)[O-])ccc1Cl [2-Chloro-5-nitro-benzonitrile] | 17 |
| N#Cc1cc([N+](=O)[O-])cc([N+](=O)[O-])c1 [3,5-Dinitro-benzonitrile] | 10 |
| N#Cc1ccc(Cl)cc1[N+](=O)[O-] [4-Chloro-2-nitro-benzonitrile] | 5 |
| N#Cc1cc([N+](=O)[O-])c(Cl)c([N+](=O)[O-])c1 [4-Chloro-3,5-dinitro-benzonitrile] | 20 |
| CCCCCN(CCCCC)S(=O)(=O)c1ccc(Cl)c([N+](=O)[O-])c1 [4-Chloro-3-nitro-N,N-dipentyl-benzenesulfonamide] | 7 |
| CCCN(CCC)S(=O)(=O)c1ccc(Cl)c([N+](=O)[O-])c1 [4-Chloro-3-nitro-N,N-dipropyl-benzenesulfonamide] | 9 |
| O=Cc1ccc(Cl)c([N+](=O)[O-])c1 [4-Chloro-3-nitro-benzaldehyde] | 15 |
| NS(=O)(=O)c1ccc(Cl)c([N+](=O)[O-])c1 [4-Chloro-3-nitro-benzenesulfonamide] | 40 |
| N#Cc1ccc(Cl)c([N+](=O)[O-])c1 [4-Chloro-3-nitro-benzonitrile] | 11 |
| O=[N+]([O-])c1cc(S(=O)(=O)N(CCO)CCO)ccc1Cl [4-Chloro-N,N-bis-(2-hydroxy-ethyl)-3-nitro-benzenesulfonamide] | 19 |
| COCCN(CCOC)S(=O)(=O)c1ccc(Cl)c([N+](=O)[O-])c1 [4-Chloro-N,N-bis-(2-methoxy-ethyl)-3-nitro-benzenesulfonamide] | 5 |
| CCN(CC)S(=O)(=O)c1ccc(Cl)c([N+](=O)[O-])c1 [4-Chloro-N,N-diethyl-3-nitro-benzenesulfonamide] | 3 |
| CC(C)N(C(C)C)S(=O)(=O)c1ccc(Cl)c([N+](=O)[O-])c1 [4-Chloro-N,N-diisopropyl-3-nitro-benzenesulfonamide] | 10 |
| CN(C)S(=O)(=O)c1ccc(Cl)c([N+](=O)[O-])c1 [4-Chloro-N,N-dimethyl-3-nitro-benzenesulfonamide] | 10 |
| CCNS(=O)(=O)c1ccc(Cl)c([N+](=O)[O-])c1 [4-Chloro-N-ethyl-3-nitro-benzenesulfonamide] | 15 |
| CCN(C(C)C)S(=O)(=O)c1ccc(Cl)c([N+](=O)[O-])c1 [4-Chloro-N-ethyl-N-isopropyl-3-nitro-benzenesulfonamide] | 15 |
| CCN(C)S(=O)(=O)c1ccc(Cl)c([N+](=O)[O-])c1 [4-Chloro-N-ethyl-N-methyl-3-nitro-benzenesulfonamide] | 10 |
| CNS(=O)(=O)c1ccc(Cl)c([N+](=O)[O-])c1 [4-Chloro-N-methyl-3-nitro-benzenesulfonamide] | 11 |
| COC(=O)c1ccc(S(C)(=O)=O)c([N+](=O)[O-])c1 [4-Methanesulfonyl-3-nitro-benzoic acid methyl ester] | 5 |
| O=C(c1ccccc1)c1ccc(Cl)c([N+](=O)[O-])c1 [(4-Chloro-3-nitro-phenyl)-phenyl-methanone] | 15 |
| O=C(c1ccc(Cl)c([N+](=O)[O-])c1)c1ccc(Cl)c([N+](=O)[O-])c1 [Bis-(4-chloro-3-nitro-phenyl)-methanone] | 5 |
| CCCCN(CCCC)S(=O)(=O)c1ccc(Cl)c([N+](=O)[O-])c1 [N,N-Dibutyl-4-chloro-3-nitro-benzenesulfonamide] | 10 |
| O=[N+]([O-])c1cc(S(=O)(=O)NCc2ccccc2)ccc1Cl [N-Benzyl-4-chloro-3-nitro-benzenesulfonamide] | 18 |
